SMILES: Clc1ccccc1C(c1ccccc1)(c1ccccc1)n1ccnc1
- solubility (mole fraction) (in 1,4-dioxane, 288.15 K): 0.0385
- solubility (mole fraction) (in 1,4-dioxane, 293.15 K): 0.0441
- solubility (mole fraction) (in 1,4-dioxane, 298.15 K): 0.05
- solubility (mole fraction) (in 1,4-dioxane, 303.15 K): 0.0568
- solubility (mole fraction) (in 1,4-dioxane, 308.15 K): 0.0643
- solubility (mole fraction) (in 1,4-dioxane, 313.15 K): 0.0731
- solubility (mole fraction) (in 1,4-dioxane, 318.15 K): 0.0813
- solubility (mole fraction) (in 1,4-dioxane, 323.15 K): 0.091
- solubility (mole fraction) (in acetonitrile, 278.15 K): 0.00173
- solubility (mole fraction) (in acetonitrile, 283.15 K): 0.00212
- solubility (mole fraction) (in acetonitrile, 288.15 K): 0.00264
- solubility (mole fraction) (in acetonitrile, 293.15 K): 0.00316
- solubility (mole fraction) (in acetonitrile, 298.15 K): 0.00378
- solubility (mole fraction) (in acetonitrile, 303.15 K): 0.00453
- solubility (mole fraction) (in acetonitrile, 308.15 K): 0.00539
- solubility (mole fraction) (in acetonitrile, 313.15 K): 0.00636
- solubility (mole fraction) (in acetonitrile, 318.15 K): 0.00741
- solubility (mole fraction) (in acetonitrile, 323.15 K): 0.00886
- solubility (mole fraction) (in isopropanol, 278.15 K): 0.00782
- solubility (mole fraction) (in isopropanol, 283.15 K): 0.00947
- solubility (mole fraction) (in isopropanol, 288.15 K): 0.0114
- solubility (mole fraction) (in isopropanol, 293.15 K): 0.0137
- solubility (mole fraction) (in isopropanol, 298.15 K): 0.0164
- solubility (mole fraction) (in isopropanol, 303.15 K): 0.0195
- solubility (mole fraction) (in isopropanol, 308.15 K): 0.0228
- solubility (mole fraction) (in isopropanol, 313.15 K): 0.0266
- solubility (mole fraction) (in isopropanol, 318.15 K): 0.031
- solubility (mole fraction) (in isopropanol, 323.15 K): 0.036
- solubility (mole fraction) (in n-propanol, 278.15 K): 0.0125
- solubility (mole fraction) (in n-propanol, 283.15 K): 0.0151
- solubility (mole fraction) (in n-propanol, 288.15 K): 0.0181
- solubility (mole fraction) (in n-propanol, 293.15 K): 0.0215
- solubility (mole fraction) (in n-propanol, 298.15 K): 0.0257
- solubility (mole fraction) (in n-propanol, 303.15 K): 0.0301
- solubility (mole fraction) (in n-propanol, 308.15 K): 0.0353
- solubility (mole fraction) (in n-propanol, 313.15 K): 0.0413
- solubility (mole fraction) (in n-propanol, 318.15 K): 0.0477
- solubility (mole fraction) (in n-propanol, 323.15 K): 0.0554
- solubility (mole fraction) (in water, 278.15 K): 9.28e-09
- solubility (mole fraction) (in water, 283.15 K): 1.22e-08
- solubility (mole fraction) (in water, 288.15 K): 1.56e-08
- solubility (mole fraction) (in water, 293.15 K): 1.98e-08
- solubility (mole fraction) (in water, 298.15 K): 2.47e-08
- solubility (mole fraction) (in water, 303.15 K): 3.11e-08
- solubility (mole fraction) (in water, 308.15 K): 3.85e-08
- solubility (mole fraction) (in water, 313.15 K): 4.78e-08
- solubility (mole fraction) (in water, 318.15 K): 5.9e-08
- solubility (mole fraction) (in water, 323.15 K): 7.07e-08
